In assay [1] the target is T1, Cyclin-G-associated kinase (Homo sapiens) (UniProt O14976).
T1 sequence (whole entry): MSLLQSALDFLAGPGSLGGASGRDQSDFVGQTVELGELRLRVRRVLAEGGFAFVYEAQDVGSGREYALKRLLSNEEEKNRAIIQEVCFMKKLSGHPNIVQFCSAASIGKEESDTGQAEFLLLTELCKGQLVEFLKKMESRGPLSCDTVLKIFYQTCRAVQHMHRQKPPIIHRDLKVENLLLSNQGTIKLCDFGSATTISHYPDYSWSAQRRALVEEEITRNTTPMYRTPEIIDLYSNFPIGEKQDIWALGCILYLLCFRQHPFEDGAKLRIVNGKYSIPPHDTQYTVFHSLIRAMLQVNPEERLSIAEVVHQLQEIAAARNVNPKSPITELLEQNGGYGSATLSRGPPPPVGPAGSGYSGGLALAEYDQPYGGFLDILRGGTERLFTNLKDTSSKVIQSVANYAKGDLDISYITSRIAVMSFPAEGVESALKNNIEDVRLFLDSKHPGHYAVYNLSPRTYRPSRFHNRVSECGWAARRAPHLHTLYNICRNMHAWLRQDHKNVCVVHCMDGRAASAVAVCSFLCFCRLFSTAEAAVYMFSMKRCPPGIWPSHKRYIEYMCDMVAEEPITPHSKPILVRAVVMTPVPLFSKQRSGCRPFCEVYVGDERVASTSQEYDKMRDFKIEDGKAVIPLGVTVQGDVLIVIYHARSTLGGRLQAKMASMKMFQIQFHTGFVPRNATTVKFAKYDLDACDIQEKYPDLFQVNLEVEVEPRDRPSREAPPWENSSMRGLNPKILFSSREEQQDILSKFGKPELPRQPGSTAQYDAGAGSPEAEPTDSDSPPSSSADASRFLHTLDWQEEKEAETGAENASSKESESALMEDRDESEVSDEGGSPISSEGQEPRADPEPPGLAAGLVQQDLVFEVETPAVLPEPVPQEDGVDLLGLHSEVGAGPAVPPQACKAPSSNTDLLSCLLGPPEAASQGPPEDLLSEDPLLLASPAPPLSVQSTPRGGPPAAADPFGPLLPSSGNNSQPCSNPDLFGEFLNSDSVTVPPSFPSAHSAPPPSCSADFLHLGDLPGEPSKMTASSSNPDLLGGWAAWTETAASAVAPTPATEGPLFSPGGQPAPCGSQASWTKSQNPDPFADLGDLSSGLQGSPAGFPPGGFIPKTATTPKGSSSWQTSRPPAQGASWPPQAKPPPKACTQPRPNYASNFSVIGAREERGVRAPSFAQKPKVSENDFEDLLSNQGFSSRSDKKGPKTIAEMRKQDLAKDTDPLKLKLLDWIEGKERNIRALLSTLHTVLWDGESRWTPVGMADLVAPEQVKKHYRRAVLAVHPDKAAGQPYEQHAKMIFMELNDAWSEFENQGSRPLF
As to the kind of experiment: Selectivity interaction (KinomeScan (DiscoverX)) EUB0000595a GAK. Particulars: at 10 µM.

Assay [2] concerns the target T2, Interleukin-1 receptor-associated kinase 3 (Homo sapiens) (UniProt Q9Y616).
T2 sequence (whole entry): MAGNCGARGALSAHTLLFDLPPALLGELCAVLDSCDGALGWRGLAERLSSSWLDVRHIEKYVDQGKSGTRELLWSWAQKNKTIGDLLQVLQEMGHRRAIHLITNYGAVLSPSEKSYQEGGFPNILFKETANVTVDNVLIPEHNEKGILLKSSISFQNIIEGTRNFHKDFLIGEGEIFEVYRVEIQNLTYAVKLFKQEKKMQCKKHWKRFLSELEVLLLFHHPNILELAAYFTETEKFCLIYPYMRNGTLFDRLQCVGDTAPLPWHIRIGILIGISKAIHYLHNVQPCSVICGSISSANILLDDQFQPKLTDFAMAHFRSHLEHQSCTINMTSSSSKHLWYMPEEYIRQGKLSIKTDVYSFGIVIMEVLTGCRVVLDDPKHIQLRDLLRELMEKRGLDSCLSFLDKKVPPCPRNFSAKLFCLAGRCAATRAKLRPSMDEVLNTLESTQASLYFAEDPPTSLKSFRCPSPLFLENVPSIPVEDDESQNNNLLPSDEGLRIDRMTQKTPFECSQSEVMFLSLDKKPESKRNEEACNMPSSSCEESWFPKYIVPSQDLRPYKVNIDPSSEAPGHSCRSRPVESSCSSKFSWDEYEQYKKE
As to the kind of experiment: Selectivity interaction (KinomeScan (DiscoverX)) EUB0000695a IRAK3. The conditions noted are these: at 100 nM.

Assay [3] deals with Serine/threonine-protein kinase Nek6 (Homo sapiens) (UniProt Q9HC98). As to the kind of experiment: Selectivity interaction (KinomeScan (DiscoverX)) EUB0000666a NEK6. The conditions noted are these: at 10 µM.
Chain of Serine/threonine-protein kinase Nek6 (Homo sapiens) (Q9HC98 whole entry): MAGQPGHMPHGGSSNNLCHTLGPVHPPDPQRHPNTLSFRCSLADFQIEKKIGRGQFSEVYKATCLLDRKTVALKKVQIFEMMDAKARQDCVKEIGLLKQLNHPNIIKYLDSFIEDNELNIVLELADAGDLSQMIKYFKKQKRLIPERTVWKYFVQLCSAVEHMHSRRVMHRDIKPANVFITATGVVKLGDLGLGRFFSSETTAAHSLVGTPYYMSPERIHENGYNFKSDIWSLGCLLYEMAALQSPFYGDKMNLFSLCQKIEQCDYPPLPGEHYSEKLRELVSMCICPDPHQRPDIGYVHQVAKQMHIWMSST
For another assay, the target named is Activated CDC42 kinase 1 (Homo sapiens, UniProt Q07912). As to the kind of experiment: Selectivity interaction (KinomeScan (DiscoverX)) EUB0000607a TNK2. The conditions noted are these: at 10 µM.
Chain of Activated CDC42 kinase 1 (Q07912 whole entry, looked up): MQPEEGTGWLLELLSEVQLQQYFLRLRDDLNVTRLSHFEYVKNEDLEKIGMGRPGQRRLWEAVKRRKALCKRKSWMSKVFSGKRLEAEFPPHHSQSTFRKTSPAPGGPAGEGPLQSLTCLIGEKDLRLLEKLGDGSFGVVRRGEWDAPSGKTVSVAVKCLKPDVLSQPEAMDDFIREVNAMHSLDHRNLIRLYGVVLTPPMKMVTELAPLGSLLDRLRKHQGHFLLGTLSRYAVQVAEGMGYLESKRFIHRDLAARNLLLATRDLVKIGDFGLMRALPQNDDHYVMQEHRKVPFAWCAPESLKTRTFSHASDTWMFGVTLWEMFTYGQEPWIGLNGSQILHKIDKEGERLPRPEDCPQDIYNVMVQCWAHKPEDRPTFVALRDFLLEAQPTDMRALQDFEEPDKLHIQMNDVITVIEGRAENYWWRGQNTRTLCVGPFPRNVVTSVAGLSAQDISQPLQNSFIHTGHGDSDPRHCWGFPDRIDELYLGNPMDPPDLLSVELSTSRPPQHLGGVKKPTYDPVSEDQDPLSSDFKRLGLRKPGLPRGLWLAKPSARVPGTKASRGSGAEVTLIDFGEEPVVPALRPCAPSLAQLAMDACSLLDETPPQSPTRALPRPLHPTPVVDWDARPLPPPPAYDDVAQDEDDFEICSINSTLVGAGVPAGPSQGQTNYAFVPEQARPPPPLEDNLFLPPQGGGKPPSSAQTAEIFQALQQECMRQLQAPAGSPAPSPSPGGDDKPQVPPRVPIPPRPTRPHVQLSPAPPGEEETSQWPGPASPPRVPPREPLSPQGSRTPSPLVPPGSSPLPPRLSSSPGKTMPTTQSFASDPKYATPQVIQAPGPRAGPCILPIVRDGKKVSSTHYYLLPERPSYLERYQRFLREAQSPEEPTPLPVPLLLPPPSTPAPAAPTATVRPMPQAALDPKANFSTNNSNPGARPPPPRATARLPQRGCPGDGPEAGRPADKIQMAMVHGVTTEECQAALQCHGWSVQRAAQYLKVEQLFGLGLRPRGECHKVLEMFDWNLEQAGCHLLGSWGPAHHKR
Assay [4] concerns the target Tyrosine-protein kinase Lyn (Homo sapiens, UniProt P07948). As to the kind of experiment: Selectivity interaction (ActivX KiNativ screen (kinase selectivity in THP-1 cell lysates)) EUB0000639a LYN. Particulars: lysate, at 5 µM. The assay is classed as subcellular.
Assay [5] has as its target Ephrin type-A receptor 2 (Homo sapiens) (UniProt P29317). As to the kind of experiment: Selectivity interaction (KinomeScan (DiscoverX)) EUB0000045b EPHA2.
In assay [6] the target is T3, Inhibitor of nuclear factor kappa-B kinase subunit epsilon (Homo sapiens) (UniProt Q14164).
T3 sequence (whole entry): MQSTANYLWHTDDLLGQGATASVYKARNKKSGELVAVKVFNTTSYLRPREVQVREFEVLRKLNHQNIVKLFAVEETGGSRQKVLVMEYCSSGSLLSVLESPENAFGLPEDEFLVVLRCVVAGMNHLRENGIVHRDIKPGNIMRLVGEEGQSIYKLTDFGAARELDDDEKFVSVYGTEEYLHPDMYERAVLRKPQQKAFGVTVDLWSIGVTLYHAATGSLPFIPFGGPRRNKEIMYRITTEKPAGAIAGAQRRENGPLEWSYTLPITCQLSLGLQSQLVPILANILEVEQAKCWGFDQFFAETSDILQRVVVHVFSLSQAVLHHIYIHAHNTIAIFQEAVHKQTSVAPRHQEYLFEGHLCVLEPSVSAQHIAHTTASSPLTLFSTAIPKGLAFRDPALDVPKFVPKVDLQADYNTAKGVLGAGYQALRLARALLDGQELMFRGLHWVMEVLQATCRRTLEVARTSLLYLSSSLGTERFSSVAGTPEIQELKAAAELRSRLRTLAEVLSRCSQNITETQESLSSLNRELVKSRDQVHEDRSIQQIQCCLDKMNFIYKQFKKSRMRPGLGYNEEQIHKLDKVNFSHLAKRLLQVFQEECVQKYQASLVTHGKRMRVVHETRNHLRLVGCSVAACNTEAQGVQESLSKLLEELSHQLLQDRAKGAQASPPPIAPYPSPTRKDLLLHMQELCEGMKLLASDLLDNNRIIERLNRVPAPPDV
Particulars: at 1 µM.

Assay [7] has as its target Ribosomal protein S6 kinase alpha-4 (Homo sapiens) (UniProt O75676). As to the kind of experiment: Selectivity interaction (KinomeScan (DiscoverX)) EUB0000092b RPS6KA4. The conditions noted are these: at 10 µM.

Each structure is given as a SMILES string.

Chain of Ephrin type-A receptor 2 (Homo sapiens) (P29317 whole entry): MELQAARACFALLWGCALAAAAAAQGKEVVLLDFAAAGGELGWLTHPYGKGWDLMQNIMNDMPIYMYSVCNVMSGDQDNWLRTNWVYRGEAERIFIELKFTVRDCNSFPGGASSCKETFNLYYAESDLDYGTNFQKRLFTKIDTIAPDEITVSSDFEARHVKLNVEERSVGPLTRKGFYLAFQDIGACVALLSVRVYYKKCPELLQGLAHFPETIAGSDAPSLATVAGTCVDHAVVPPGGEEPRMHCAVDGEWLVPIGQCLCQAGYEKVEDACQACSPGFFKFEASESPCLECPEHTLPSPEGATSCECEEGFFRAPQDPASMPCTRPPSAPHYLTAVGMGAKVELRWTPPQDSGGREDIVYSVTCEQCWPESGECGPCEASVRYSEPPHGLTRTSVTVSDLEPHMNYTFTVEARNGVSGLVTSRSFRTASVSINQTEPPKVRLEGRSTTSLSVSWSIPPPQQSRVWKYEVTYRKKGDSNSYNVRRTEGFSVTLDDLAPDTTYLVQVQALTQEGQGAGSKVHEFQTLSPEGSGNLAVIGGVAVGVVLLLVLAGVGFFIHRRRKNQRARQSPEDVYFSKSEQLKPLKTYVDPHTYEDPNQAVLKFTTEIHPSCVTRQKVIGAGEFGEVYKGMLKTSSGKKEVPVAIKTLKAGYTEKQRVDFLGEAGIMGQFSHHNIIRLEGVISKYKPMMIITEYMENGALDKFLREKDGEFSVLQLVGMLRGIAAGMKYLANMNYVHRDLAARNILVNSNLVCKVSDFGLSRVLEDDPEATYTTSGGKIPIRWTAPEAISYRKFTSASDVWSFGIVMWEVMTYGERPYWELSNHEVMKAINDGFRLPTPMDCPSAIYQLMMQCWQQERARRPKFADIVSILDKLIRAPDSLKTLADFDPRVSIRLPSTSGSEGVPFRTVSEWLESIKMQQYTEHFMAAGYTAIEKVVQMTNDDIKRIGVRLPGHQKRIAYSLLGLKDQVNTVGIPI
Chain of Ribosomal protein S6 kinase alpha-4 (Homo sapiens) (O75676 whole entry, looked up): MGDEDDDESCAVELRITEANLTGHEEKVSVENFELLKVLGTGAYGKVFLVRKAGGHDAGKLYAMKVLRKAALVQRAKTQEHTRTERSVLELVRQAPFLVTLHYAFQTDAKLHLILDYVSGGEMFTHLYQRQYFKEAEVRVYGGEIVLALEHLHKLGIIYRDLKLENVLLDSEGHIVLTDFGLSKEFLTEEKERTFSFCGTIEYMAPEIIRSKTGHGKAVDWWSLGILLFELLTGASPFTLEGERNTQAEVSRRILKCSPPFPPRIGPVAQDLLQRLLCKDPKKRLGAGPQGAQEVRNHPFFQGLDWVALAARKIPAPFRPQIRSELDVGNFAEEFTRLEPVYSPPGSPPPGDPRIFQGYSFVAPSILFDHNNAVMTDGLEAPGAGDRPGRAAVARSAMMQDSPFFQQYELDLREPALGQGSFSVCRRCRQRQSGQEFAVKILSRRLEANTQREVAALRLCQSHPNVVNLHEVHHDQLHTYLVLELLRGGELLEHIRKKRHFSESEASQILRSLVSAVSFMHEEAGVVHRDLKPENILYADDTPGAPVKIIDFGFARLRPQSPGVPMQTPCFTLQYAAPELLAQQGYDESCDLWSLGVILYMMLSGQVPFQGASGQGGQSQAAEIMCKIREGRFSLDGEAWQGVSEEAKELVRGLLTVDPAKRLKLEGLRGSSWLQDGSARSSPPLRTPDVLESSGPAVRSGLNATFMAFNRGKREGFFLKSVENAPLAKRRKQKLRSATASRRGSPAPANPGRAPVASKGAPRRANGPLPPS
Chain of Tyrosine-protein kinase Lyn (P07948 2-512 limits assumed): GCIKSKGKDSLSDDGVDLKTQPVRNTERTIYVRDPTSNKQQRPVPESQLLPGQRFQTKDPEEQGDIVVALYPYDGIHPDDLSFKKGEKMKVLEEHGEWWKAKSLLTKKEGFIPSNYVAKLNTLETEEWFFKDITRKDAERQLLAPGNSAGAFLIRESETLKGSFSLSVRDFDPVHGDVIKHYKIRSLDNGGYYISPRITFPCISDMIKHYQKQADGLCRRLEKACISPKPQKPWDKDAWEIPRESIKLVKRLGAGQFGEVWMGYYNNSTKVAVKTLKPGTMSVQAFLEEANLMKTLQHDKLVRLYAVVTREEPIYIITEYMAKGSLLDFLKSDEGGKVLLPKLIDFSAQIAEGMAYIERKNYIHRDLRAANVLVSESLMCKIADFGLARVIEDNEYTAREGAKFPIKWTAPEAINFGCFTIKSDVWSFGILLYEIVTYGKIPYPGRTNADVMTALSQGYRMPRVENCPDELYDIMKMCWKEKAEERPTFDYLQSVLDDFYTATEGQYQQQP

Consider `COCC(=O)NC/C=C/c1ccc2ncnc(Nc3ccc(Oc4ccc(C)nc4)c(C)c3)c2c1` [CP-724714], for which the % of control in assay [1] is 84%.

`Cc1cc(F)c(C(=O)Nc2cccc(-c3nncn3C(C)C)n2)cc1-n1cnc(C2CC2)c1`: in assay [2], the % of control is 100%.

Regarding `O=C(NOC[C@H](O)CO)c1ccc(F)c(F)c1Nc1ccc(I)cc1F`, the % of control in assay [3] was 100%.

As for `CNC(=O)Nc1ccc(-c2nc(N3CC4CCC(C3)O4)c3cnn(C4CCC5(CC4)OCCO5)c3n2)cc1`, the % of control at Activated CDC42 kinase 1 is 84%.

Regarding `CC[C@@H]1[C@H](F)C(=O)N[C@@H]1COc1nccc2cc(C(N)=O)c(OC)cc12` [ZIMLOVISERTIB], the % of inhibition in assay [4] was -9.2%.

As for `C=CC(=O)Nc1cc(-n2c(=O)ccc3cnc4ccc(-c5ccc(NS(C)(=O)=O)cc5)cc4c32)ccc1C`, the % of control in assay [5] (at 1 µM) and in assay [5] (at 10 µM) was 100% throughout.

`Cc1ccc(-c2ccc3c(ccc4sc5c(c43)NC[C@@H](C)NC5=O)n2)cn1`: the % of inhibition in assay [6] was 11%.

In assay [7], `CCC(=O)N1CCN(c2ccc(-n3c(=O)ccc4cnc5ccc(-c6cnc7ccccc7c6)cc5c43)cc2C(F)(F)F)CC1` showed a % of control of 100%.

These data come from ChEMBL document CHEMBL5465560, “Selectivity Literature for EUbOPEN Chemogenomic Library” (2024).
